Results: publication PMC6466937, “Evaluation of In Vitro Antioxidant and Antidiabetic Activities of Aristolochia longa Extracts” (Evidence-based Complementary and Alternative Medicine : eCAM, 2019)

Biological target: T1, β-Galactosidase from Aspergillus oryzae (Aspergillus oryzae, UniProt Q2UCU3)
T1 construct: gene lacA; commercial secreted enzyme (Sigma-Aldrich), no catalogue number
T1 sequence (Q2UCU3 19-1005): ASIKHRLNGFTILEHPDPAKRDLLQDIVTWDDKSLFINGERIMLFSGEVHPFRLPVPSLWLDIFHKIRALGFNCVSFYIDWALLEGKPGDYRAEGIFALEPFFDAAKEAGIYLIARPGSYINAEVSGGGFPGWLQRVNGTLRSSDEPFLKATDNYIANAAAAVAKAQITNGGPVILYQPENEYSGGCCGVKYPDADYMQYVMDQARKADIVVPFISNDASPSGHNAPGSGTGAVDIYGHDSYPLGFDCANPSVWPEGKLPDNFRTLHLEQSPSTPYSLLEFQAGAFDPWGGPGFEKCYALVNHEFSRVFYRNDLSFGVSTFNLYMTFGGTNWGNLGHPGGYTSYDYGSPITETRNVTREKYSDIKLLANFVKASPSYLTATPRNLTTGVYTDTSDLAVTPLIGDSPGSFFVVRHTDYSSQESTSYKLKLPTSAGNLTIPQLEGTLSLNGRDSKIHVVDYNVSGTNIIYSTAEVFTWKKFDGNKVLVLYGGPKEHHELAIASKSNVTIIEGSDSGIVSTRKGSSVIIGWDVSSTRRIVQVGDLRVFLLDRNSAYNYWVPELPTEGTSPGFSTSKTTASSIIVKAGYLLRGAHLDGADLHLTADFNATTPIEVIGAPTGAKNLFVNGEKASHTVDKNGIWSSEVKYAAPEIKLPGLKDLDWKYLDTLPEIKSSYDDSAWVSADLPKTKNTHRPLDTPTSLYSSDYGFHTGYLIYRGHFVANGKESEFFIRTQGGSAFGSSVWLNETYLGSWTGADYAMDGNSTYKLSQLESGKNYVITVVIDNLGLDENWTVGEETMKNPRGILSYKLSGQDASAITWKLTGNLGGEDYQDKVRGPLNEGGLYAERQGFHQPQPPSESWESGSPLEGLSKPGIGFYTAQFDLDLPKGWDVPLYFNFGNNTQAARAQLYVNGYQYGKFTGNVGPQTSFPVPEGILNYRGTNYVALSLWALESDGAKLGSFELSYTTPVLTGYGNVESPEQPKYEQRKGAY
Assay: 2-nitrophenyl beta-D-galactopyranoside hydrolysis, absorbance […] nm
Format: biochemical
Details: read-out: β-Galactosidase inhibition / IC50 (mg/mL) (converted)

## O=c1c(O)c(-c2ccc(O)c(O)c2)oc2cc(O)cc(O)c12 [Quercetin]
  IC50: 817 µM
